# What was measured:
# [1] = Plasma protein binding rate, human plasma (equilibrium dialysis); assay type: in vitro ADME; settings: dialysis 4 h at 37° C.
# Description: Experimental Example 5: Study on Plasma Protein Binding Rate
# The protein binding rates of the compounds disclosed herein in plasma of human, CD-1 mice and SD rats were determined. 796 μL of blank plasma was taken from human, CD-1 mice and SD rats, and added with 4 μL of test compound working solution (400. μM) or warfarin working solution (400 μM) to achieve a final concentration of 2 μM of both the test compound and the warfarin in the plasma sample. The samples were mixed well. The final concentration of organic phase DMSO was 0.5%; 50 μL of test compound and warfarin plasma sample was pipetted into a sample receiving plate (three parallels), and a corresponding volume of blank plasma or buffer was immediately added such that the final volume of each sample well was 100 μL. The volume ratio of plasma to dialysis buffer was 1:1, and 400 μL of stop solution was added to these samples, which were used as TO samples for determination of recovery rate and stability. The TO samples were stored at 2-8° C. for subsequent treatment with other dialyzed samples; 150 μL of the test compound and warfarin plasma sample was added to a drug delivery end of each dialysis well, and 150 μL of blank dialysis buffer was added to a corresponding receiving end of the dialysis well. The dialysis plate was then sealed with a gas permeable membrane and placed in a humid, 5% CO2 incubator and incubated at 37° C. for 4 h while shaking at about 100 rpm. After the dialysis was completed, 50 μL of the dialyzed buffer sample and dialyzed plasma sample were pipetted to a new sample receiving plate. A corresponding volume of corresponding blank plasma or buffer was added to the samples such that the final volume of each sample well was 100 μL, and the volume ratio of plasma to dialysis buffer was 1:1. All samples were subjected to LC/MS analysis after protein precipitation, and the protein binding rates and the recovery rates were calculated by the following formulas: protein unbinding rate (%)=100×drug concentration passing through dialysis membrane/drug concentration not passing through dialysate; protein binding rate (%)=100−protein unbinding rate (%); recovery rate (%)=100×(drug concentration passing through dialysis membrane+drug concentration not passing through dialysate)/total drug concentration before dialysis.
# PARP1 = molecular target: T1, PARP1 (Homo sapiens, UniProt P09874); experiment: PARP-1 enzymatic experiment (HT Universal Chemiluminescent PARP Assay kit); assay type: biochemical; settings: chemiluminescence
# T1 construct: purchased TREVIGEN
# T1 sequence (P09874 whole entry): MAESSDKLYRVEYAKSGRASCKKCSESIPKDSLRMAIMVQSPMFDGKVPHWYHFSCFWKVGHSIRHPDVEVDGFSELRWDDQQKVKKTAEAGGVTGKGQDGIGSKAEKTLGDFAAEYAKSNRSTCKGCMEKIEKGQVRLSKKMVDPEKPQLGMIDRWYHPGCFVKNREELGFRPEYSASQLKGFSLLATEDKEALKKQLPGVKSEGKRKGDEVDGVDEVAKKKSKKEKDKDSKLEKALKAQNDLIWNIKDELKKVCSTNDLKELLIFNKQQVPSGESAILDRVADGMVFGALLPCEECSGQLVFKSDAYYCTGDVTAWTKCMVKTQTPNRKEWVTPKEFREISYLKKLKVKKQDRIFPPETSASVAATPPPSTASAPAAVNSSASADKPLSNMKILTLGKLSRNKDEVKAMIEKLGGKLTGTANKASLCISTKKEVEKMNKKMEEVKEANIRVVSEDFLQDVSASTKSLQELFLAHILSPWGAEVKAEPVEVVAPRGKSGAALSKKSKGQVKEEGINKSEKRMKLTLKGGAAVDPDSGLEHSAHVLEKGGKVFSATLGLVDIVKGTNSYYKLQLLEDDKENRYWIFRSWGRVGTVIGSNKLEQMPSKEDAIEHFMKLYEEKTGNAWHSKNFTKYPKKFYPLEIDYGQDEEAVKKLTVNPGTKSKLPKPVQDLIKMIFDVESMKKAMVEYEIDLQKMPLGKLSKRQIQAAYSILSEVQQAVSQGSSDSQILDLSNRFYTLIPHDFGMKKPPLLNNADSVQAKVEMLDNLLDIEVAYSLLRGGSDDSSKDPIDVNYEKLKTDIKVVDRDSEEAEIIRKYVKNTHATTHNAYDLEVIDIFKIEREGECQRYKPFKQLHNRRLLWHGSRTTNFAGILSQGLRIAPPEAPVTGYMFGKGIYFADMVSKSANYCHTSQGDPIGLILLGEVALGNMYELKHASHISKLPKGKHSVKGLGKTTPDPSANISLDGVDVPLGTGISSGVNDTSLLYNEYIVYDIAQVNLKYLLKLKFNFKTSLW
# Description: Experimental Example 1: PARP-1 Enzymatic Experiment
# Experimental materials: test compounds; HT Universal Chemiluminescent PARP Assay kit (purchased from TREVIGEN); PBS (purchased from Wisent); Triton X-100 (purchased from Macklin); Envision multi-marker analyzer (PerkinElmer).
# (I) Preparation of Reagents:
# • 1. Washing solution: Triton X-100 was added to 1-fold PBS, and the final concentration of Triton X-100 was 0.1%. • 2. 1-fold PARP buffer: the 20-fold PARP buffer in the kit was subjected to 20-fold dilution with water to prepare a 1-fold PARP buffer. This buffer was used to prepare the compound, enzyme solution and substrate solution. • 3. 1-fold Strep-Diluent solution: the 10-fold Strep-diluent in the kit was subjected to 10-fold dilution with water to prepare a 1-fold Strep-diluent solution.
# (II) Preparation of Test Compounds:
# Test compounds were serially 5-fold diluted to the 8th concentration with a multichannel pipette, i.e. from 200 μM to 2.56 nM, with the DMSO concentration being 100%. 2 μL of each of the inhibitors at various concentration gradients was added to a compound intermediate plate, and 38 μL of the 1-fold PARP buffer was then added; the two were mixed well for use, and the DMSO concentration was 5%.
# (III) Experimental Method:
# • a) The 1-fold PARP buffer was added to a test plate at 50 μL per well and incubated at 25° C. for 30 min. • b) After the incubation was completed, the liquid in the test plate was discarded, and each of the compounds at various concentration gradients was pipetted from the compound intermediate plate and added into the test plate at 10 μL per well. A duplicate-well experiment was performed. • c) The test plate was added with the enzyme solution (0.5 IU) at 15 μL per well. The compound and enzyme were incubated together at 25° C. for 10 min. • d) After the incubation was completed, 25 μL of the 1-fold PARP Cocktail (comprising 2.5 μL of 10-fold PARP Cocktail, 2.5 μL of 10-fold Activated DNA and 20 μL of 1-fold PARP buffer) was added to each well of the test plate. The test plate was incubated at 25° C. for 1 h. The final concentration of the compound was 2 μM to 0.0256 nM, and the DMSO concentration was […]. • e) After the incubation was completed, the test plate was washed twice with 200 μL of washing solution per well and then washed twice with 200 μL of PBS per well. • f) Strep-HRP in the kit was subjected to 500-fold dilution with the 1-fold Strep-Diluent solution, added to the test plate at 50 μL per well, and then incubated at 25° C. for 1 h. • g) After the incubation was completed, the test plate was washed twice with 200 μL of washing solution per well and then washed twice with 200 μL of PBS per well.
# PeroxyGlow A and B in the kit were mixed at ratio of 1:1, and the mixed solution was added to the test plate at 100 μL per well. Chemiluminescence was immediately read using a PerkinElmer Envision multi-marker analyzer with an integration time of 0.5 s.
# Data analysis: the original data was converted to inhibition using the equation (sample−Min)/(Max−Min)×[…], and the IC50 value was then curve filled using four parameters (obtained from the “log(inhibitor) vs. response-variable slope” model in GraphPad Prism).
Compound,"fraction unbound at 4 h, 2 μM [1]",IC50 (PARP1) [nM]
CC1(c2ccc(-c3[nH]c4cc(F)cc5c4c3CONC5=O)cc2)CCCN1 (stereo not shown) [Example 25_A],0.149,2.3
"CC1(c2ccc(-c3[nH]c4cc(F)cc5c4c3CONC5=O)cc2F)CCCN1 (single isomer, unassigned) [Example 26_A]",0.057,3.4
CC1(c2ccc(-c3[nH]c4cccc5c4c3CONC5=O)cc2)CCCN1 (stereo not shown) [Example 6_A],0.181,2.8
"O=C1NOCc2c(-c3ccc(C4CCCN4)cc3)[nH]c3cc(F)cc1c23 (single isomer, unassigned) [Example 24_A]",0.073,2
O=C1NOCc2c(-c3ccc(C4CCCN4)c(F)c3)[nH]c3cccc1c23 (stereo not shown) [Example 11_A],0.235,3.6

# Source: patent US20220144850A1, “INDOLO HEPTAMYL OXIME ANALOGUE AS PARP INHIBITOR” (Chia Tai Tianqing Pharmaceutical Group Co., Ltd., priority 2019, published 2022)
